Data as given in patent publication US8202873B2, “2-[4-(pyrazol-4-ylalkyl)piperazin-1-yl]-3-phenyl pyrazines as 5-HT7 receptor antagonists” (Eli Lilly and Company, priority 2007, dated 2012).
pKi: −log10 of the molar value. Values joined by “and” are separate entries in the source; they are usually repeats but may differ in a detail not shown here. Identical values can stand only once.

Assays:
[1] = biological target: T1, 5-HT2C (Homo sapiens, UniProt P28335); assay: Radioligand receptor binding assay, 5-HT2C
T1 construct: expressed in transfected cells
T1 sequence (P28335 33-458): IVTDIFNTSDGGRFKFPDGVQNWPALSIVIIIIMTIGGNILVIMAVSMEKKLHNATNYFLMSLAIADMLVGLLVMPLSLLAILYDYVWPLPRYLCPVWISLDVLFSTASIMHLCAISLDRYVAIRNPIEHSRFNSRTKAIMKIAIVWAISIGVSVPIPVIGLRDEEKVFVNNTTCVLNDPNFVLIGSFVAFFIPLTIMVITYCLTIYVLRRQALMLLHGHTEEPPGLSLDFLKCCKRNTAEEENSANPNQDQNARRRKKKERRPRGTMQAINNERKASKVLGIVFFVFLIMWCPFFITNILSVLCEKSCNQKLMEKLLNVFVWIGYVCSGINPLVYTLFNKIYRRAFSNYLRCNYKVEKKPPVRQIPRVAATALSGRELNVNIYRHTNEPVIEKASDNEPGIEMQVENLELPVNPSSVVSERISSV
Experimental: (§1) [^3H] […] The reactions are incubated at room temperature for 3 hr. and then counted in a Trilux Microbeta™ scintillation counter to detect receptor-bound radioligand. Binding data is analyzed by computer-assisted 4 parameter fit analysis (ID Business Solutions Ltd, Guildford, Surrey, UK). […]
(§2) Affinity for other serotonin receptor subtypes as well as for alpha 1 & 2 adrenergic receptors can readily be determined by modification of the above described radioligand receptor binding assay using membranes derived from cells stably expressing the desired receptor subtype including the 5-HT1A, 5-HT1B, and 5-HT1D subtypes, as well as the 5-HT2A, 5-HT2B, 5-HT2C, 5-HT4, 5-HT5, and 5-HT6 receptor subtypes. […] The binding affinities of compounds of the present invention may be determined at these additional receptor types and are found to generally have selectivity ratios ≧2.0 against other serotonergic receptors. […]

[2] = biological target: T2, alpha 1 adrenergic; assay: Radioligand receptor binding assay, alpha 1 adrenergic (first line); conditions: alpha 1 adrenergic (first line, r12)
T2 construct: Ki; other: alpha 1 adrenergic (first line, r12)
Experimental: as §1, §2

[3] = biological target: T3, 5-HT7 receptor (Homo sapiens, UniProt P34969); assay: 5-HT7 receptor affinity: radioligand binding assay ([3H]5-HT, SPA); conditions: [3H]5-HT competition binding
T3 construct: expressed in transfected cells; host or cells: AV-12 cells
Experimental: Membranes for affinity and antagonist activity assays are prepared essentially as follows. AV-12 cells, stably expressing the 5-HT7 receptor, are grown as a monolayer in 5×T-150 flasks in DMEM/F12 (3:1) 5% FBS, 20 mM HEPES, […], […]. After growing to 90% confluence the media is removed and replaced with Hybritech media containing 2% horse serum, […] dextran sulfate, 1 mg/mL nucellin, 1 mg/mL human transferrin (partially iron saturated), […], 20 mM HEPES, […] geneticin, 0.04% pluronic F68. The cells are grown overnight to condition the media. The next morning the conditioned media (˜150 mL total) is removed and set aside in a sterile container. The cells are trypsinized and collected in the conditioned media. Fresh suspension media is added to bring the total volume to 500 mL and a cell density of 5×10^5 cells/mL. […]
To prepare membranes, the above pellets are resuspended in ice-cold Tris buffer (20 mM Tris HCl, pH 7.4 at 23° C., 5 mM EDTA) and homogenized with a Wheaton tissue grinder. […] Protein concentrations are determined by the method of Bradford. […]
as §1

[4] = biological target: T4, 5-HT4 (Homo sapiens, UniProt Q13639); assay: Radioligand receptor binding assay, 5-HT4
T4 construct: expressed in transfected cells
Experimental: as §1, §2

[5] = biological target: T5, 5-HT6 (Homo sapiens, UniProt P50406); assay: Radioligand receptor binding assay, 5-HT6
T5 construct: expressed in transfected cells
Experimental: as §1, §2

[6] = biological target: T6, 5-HT1A (Homo sapiens, UniProt P08908); assay: Radioligand receptor binding assay, 5-HT1A
T6 construct: expressed in transfected cells
T6 sequence (P08908 1-422): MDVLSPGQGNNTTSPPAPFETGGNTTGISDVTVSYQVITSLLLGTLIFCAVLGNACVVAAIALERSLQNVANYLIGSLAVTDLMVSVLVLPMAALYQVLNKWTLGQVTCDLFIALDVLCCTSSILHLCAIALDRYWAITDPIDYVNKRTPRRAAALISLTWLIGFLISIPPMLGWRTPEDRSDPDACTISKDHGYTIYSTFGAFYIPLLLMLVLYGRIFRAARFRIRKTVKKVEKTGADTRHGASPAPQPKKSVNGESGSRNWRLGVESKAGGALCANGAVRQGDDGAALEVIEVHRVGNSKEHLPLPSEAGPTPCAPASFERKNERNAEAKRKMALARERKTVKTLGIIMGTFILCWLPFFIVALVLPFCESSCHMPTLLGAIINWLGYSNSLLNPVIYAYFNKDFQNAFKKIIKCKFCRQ
Experimental: as §1, §2

[7] = biological target: T7, 5-HT1B (Homo sapiens, UniProt P28222); assay: Radioligand receptor binding assay, 5-HT1B
T7 construct: expressed in transfected cells
Experimental: as §1, §2

[8] = biological target: T8, 5-HT2A (Homo sapiens, UniProt P28223); assay: Radioligand receptor binding assay, 5-HT2A
T8 construct: expressed in transfected cells
Experimental: as §1, §2

[9] = biological target: T9, 5-HT2B (Homo sapiens, UniProt P41595); assay: Radioligand receptor binding assay, 5-HT2B
T9 construct: expressed in transfected cells
Experimental: as §1, §2

[10] = biological target: T10, 5-HT5 (Homo sapiens, UniProt P47898); assay: Radioligand receptor binding assay, 5-HT5
T10 construct: expressed in transfected cells
Experimental: as §1, §2

[11] = biological target: T11, alpha 1 adrenergic; assay: Radioligand receptor binding assay, alpha 1 adrenergic (second line); conditions: alpha 1 adrenergic (second line, r13)
T11 construct: Ki; other: alpha 1 adrenergic (second line, r13)
Experimental: as §1, §2

[12] = biological target: T12, 5-HT1D (Homo sapiens, UniProt P28221); assay: Radioligand receptor binding assay, 5-HT1D
T12 construct: expressed in transfected cells
Experimental: as §1, §2

T3 sequence (P34969 whole entry): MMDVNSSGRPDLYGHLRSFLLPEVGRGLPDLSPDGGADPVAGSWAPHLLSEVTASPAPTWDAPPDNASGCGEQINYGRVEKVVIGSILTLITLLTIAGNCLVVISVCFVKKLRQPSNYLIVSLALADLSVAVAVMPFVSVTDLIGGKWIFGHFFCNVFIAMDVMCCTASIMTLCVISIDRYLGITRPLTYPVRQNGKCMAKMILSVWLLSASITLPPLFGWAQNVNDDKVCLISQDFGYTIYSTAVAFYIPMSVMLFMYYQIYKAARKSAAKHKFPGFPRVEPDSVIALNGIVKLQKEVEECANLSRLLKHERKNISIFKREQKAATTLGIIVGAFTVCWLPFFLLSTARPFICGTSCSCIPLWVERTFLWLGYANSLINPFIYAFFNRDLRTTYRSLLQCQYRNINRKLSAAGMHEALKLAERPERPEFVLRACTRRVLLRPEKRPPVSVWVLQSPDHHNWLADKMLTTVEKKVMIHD
T5 sequence (P50406 whole entry, species assumed): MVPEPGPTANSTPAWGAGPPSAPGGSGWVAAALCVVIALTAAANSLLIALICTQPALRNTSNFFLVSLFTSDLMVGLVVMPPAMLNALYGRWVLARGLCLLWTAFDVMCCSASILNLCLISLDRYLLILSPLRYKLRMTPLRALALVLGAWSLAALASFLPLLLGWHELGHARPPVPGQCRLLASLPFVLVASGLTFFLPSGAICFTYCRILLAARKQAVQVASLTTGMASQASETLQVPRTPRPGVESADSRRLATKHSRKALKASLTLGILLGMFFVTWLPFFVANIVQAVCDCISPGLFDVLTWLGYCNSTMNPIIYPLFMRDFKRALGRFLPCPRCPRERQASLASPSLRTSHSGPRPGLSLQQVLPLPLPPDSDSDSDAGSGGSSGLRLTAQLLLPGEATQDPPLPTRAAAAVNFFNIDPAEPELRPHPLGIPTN
T8 sequence (P28223 whole entry, species assumed): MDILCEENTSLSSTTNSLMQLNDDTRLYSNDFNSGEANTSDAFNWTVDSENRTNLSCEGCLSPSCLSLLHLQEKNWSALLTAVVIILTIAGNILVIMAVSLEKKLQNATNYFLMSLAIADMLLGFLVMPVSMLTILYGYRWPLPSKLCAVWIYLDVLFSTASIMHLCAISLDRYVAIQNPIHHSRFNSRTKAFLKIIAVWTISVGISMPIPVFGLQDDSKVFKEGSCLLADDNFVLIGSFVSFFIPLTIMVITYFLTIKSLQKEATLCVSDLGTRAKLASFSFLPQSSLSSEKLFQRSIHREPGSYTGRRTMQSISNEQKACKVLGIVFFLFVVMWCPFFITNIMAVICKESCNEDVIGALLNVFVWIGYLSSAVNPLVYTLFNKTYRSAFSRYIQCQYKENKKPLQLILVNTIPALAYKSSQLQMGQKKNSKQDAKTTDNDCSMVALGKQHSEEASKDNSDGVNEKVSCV
T12 sequence (P28221 whole entry, species assumed): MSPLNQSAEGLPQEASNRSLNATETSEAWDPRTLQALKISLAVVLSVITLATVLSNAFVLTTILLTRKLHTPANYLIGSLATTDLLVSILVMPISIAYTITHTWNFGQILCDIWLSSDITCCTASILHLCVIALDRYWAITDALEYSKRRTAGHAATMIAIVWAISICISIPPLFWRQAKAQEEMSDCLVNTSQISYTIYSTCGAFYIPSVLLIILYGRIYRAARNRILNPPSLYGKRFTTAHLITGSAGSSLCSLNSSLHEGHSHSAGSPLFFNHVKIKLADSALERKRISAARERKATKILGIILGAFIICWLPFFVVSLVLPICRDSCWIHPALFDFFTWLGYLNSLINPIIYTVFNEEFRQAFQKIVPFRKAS
T4 sequence (Q13639 whole entry, species assumed): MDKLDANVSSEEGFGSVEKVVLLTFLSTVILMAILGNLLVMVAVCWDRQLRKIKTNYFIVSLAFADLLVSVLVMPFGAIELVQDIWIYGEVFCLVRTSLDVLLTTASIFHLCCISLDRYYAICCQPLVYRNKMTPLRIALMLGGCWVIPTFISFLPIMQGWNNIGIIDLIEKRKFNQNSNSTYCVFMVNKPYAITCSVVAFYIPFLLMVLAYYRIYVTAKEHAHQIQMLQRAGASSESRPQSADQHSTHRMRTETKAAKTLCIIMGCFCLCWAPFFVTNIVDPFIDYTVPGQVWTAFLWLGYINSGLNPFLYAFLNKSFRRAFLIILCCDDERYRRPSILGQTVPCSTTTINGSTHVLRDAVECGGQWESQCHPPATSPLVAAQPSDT
T10 sequence (P47898 whole entry, species assumed): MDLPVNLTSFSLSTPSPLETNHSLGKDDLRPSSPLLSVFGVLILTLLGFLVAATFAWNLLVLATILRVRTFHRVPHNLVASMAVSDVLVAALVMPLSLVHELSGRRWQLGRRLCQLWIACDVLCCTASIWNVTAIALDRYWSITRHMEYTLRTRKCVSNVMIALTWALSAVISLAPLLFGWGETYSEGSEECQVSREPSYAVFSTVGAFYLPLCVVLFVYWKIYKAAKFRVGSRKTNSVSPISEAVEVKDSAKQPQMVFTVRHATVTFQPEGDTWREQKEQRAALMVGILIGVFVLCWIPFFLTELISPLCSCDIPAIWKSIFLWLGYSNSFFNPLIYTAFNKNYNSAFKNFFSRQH
T7 sequence (P28222 whole entry, species assumed): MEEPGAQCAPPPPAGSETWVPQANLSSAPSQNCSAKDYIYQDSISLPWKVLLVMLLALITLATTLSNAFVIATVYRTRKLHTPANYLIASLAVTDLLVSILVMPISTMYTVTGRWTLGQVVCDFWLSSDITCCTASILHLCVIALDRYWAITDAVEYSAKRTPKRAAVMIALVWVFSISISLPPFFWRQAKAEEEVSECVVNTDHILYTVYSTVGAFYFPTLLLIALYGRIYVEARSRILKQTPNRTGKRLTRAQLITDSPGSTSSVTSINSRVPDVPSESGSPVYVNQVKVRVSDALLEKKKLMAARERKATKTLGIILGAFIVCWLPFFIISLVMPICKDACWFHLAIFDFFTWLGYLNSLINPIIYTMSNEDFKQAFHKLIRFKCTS
T9 sequence (P41595 whole entry, species assumed): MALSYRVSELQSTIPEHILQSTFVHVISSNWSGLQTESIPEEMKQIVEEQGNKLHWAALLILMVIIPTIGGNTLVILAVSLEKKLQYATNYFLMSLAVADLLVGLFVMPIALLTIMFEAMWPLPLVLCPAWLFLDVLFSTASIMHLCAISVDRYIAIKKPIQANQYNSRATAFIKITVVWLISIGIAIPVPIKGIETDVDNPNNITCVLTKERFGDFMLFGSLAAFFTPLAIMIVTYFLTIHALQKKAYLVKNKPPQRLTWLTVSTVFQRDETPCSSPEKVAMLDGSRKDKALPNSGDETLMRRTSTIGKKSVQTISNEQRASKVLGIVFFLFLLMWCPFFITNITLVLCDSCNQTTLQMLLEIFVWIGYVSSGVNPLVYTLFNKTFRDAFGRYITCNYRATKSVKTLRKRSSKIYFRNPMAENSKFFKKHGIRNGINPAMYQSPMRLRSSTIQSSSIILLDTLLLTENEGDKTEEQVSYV

SMILES: Cn1cc(CN2CCN(c3nccnc3-c3cccc(F)c3F)CC2)cn1 [Example 142, 4-(1-Methyl-1H-pyrazol-4-ylmethyl)-3′-(2,3-difluorophenyl)-3,4,5,6-tetrahydro-2H-[1,2′]bipyrazine]
- pKi [1]: < 5.09
- pKi [2]: < 5.84
- pKi [3]: ~7.36 and 7.36
- pKi [4]: < 5.20
- pKi [5]: < 5.75
- pKi [6]: 5.90
- pKi [7]: < 5.45
- pKi [8]: < 5.13
- pKi [9]: < 5.50
- pKi [10]: < 5.15
- pKi [11]: 6.03
- pKi [12]: < 5.62
